Tested on: Uterine Eosinophil Peroxidase (EPO)
Assay: Uterine Eosinophil Peroxidase (EPO) Assay on uteri of dosed OVX rats
Type: in vivo, Sprague Dawley rats
Details: ovariectomized rats

C[C@]12CC[C@@H]3c4ccc(O)cc4CC[C@H]3[C@@H]1CC[C@@H]2O [estradiol]
Eosinophil infiltration into the uterus (number of eosinophils in the stromal layer, in words): substantial, expected increase in eosinophil infiltration

From US6399634B1, “Benzothiophene compounds, compositions, and methods” (Eli Lilly and Company, priority 1994, dated 2002)
